Assays:
[1] = system: wtTel26 (DNA, G4) TTAGGGTTAGGGTTAGGGTTAGGGTT; test: fluorescence titration; conditions: 100 mM K+, 25 °C, pH 7; for Kd: 0.2 μM ligand titrated with DNA; for ΔGbindo(expt): 0.2 μM ligand, ΔG obtained from experimentally determined Kd
[2] = system: wtTel26 (DNA, G4) TTAGGGTTAGGGTTAGGGTTAGGGTT; test: 1D 1H NMR titration; conditions: 25 mM potassium phosphate, 70 mM KCl, pH 7, 25 °C, 100–250 µM DNA
[3] = medium exchange, peak broadening, less specific

Row | Kd [1] [µM] | ΔGbindo(expt) [1] [kcal/mol] | binding ([2]; slow exchange, well-defined complex) | binding [2, 3] | Compound
1 | 0.016 ± 0.0016 | -10.70 ± 0.02 | yes | – | COc1cc2c(cc1OC)-c1cc3ccc4c(c3c[n+]1CC2)OCO4
2 | 1.994 ± 0.0461 | -7.82 ± 0.06 | – | yes | COc1ccc2cc3[n+](cc2c1OC)CCc1cc2c(cc1-3)OCO2
3 | 0.333 ± 0.0057 | -8.89 ± 0.1 | – | yes | c1c2c(cc3c1OCO3)-c1cc3ccc4c(c3c[n+]1CC2)OCO4
4 | 0.740 ± 0.0206 | -8.41 ± 0.01 | – | yes | COc1cc2c(cc1OC)-c1cc3ccc(OC)c(OC)c3c[n+]1CC2

Source: paper PMC6515380 (2019)
